How the values were obtained:
OVCAR-5 = experiment: NCI one-dose assay; assay type: cell-based; conditions: Homo sapiens, OVCAR-5, Ovarian cancer, read-out: Cell growth inhibition %
NCI-H460 = experiment: NCI one-dose assay; assay type: cell-based; conditions: Homo sapiens, NCI-H460, Non-small cell lung cancer, read-out: Cell growth inhibition %
SF-539 = experiment: NCI one-dose assay; assay type: cell-based; conditions: Homo sapiens, SF-539, CNS cancer, read-out: Cell growth inhibition %
UACC-62 = experiment: NCI one-dose assay; assay type: cell-based; conditions: Homo sapiens, UACC-62, Melanoma, read-out: Cell growth inhibition %
NCI-H226 = experiment: NCI one-dose assay; assay type: cell-based; conditions: Homo sapiens, NCI-H226, Non-small cell lung cancer, read-out: Cell growth inhibition %
IGROV1 = experiment: NCI one-dose assay; assay type: cell-based; conditions: Homo sapiens, IGROV-1, IGROV1, Ovarian cancer, read-out: Cell growth inhibition %
MALME-3M = experiment: NCI one-dose assay; assay type: cell-based; conditions: Homo sapiens, Melanoma, read-out: Cell growth inhibition %
OVCAR-8 = experiment: NCI one-dose assay; assay type: cell-based; conditions: Homo sapiens, OVCAR-8, Ovarian cancer, read-out: Cell growth inhibition %
SNB-75 = experiment: NCI one-dose assay; assay type: cell-based; conditions: Homo sapiens, SNB-75, CNS cancer, read-out: Cell growth inhibition %
RPMI-8226 = experiment: NCI one-dose assay; assay type: cell-based; conditions: Homo sapiens, RPMI-8226, Leukemia, read-out: Cell growth inhibition %
PC-3 = experiment: NCI one-dose assay; assay type: cell-based; conditions: Homo sapiens, PC-3, Prostate cancer, read-out: Cell growth inhibition %
NCI/ADR-RES = experiment: NCI one-dose assay; assay type: cell-based; conditions: Homo sapiens, Ovarian cancer, read-out: Cell growth inhibition %
SK-MEL-5 = experiment: NCI one-dose assay; assay type: cell-based; conditions: Homo sapiens, SK-MEL-5, Melanoma, read-out: Cell growth inhibition %
TK-10 = experiment: NCI one-dose assay; assay type: cell-based; conditions: Homo sapiens, TK-10, Renal cancer, read-out: Cell growth inhibition %
U251 = experiment: NCI one-dose assay; assay type: cell-based; conditions: Homo sapiens, U-251, U251, CNS cancer, read-out: Cell growth inhibition %
LOX IMVI = experiment: NCI one-dose assay; assay type: cell-based; conditions: Homo sapiens, Melanoma, read-out: Cell growth inhibition %
MDA-MB-435 = experiment: NCI one-dose assay; assay type: cell-based; conditions: Homo sapiens, MDA-MB-435, Melanoma, read-out: Cell growth inhibition %
NCI-H23 = experiment: NCI one-dose assay; assay type: cell-based; conditions: Homo sapiens, NCI-H23, Non-small cell lung cancer, read-out: Cell growth inhibition %
HOP-92 = experiment: NCI one-dose assay; assay type: cell-based, human; conditions: Homo sapiens, HOP-92, HOP-92, Non-small cell lung cancer, read-out: Cell growth inhibition %
Description: (§1) The National Cancer Institute (NCI), Bethesda, USA, selected the final compounds 6a–j and 7a–j for in vitro anticancer screening. An initial in vitro single-dose anticancer experiment was performed with the entire NCI 60 cell lines derived from nine tumor subpanel cancer cell lines. The results for each compound were illustrated as a mean graph showing the percentage growth of treated cells compared to untreated control cells (see Supplementary Materials).
(§2) The NCI anticancer screening process has been thoroughly detailed. The Drug Evaluation Branch of the National Cancer Institute in Bethesda, […], USA, established the procedure and conducted the anticancer assay on 60 human tumor cell lines from nine neoplastic cancers.

A498 = experiment: NCI one-dose assay; assay type: cell-based, human; conditions: Homo sapiens, A498, A498, Renal cancer, read-out: Cell growth inhibition %
Description: as §1, §2

UO-31 = experiment: NCI one-dose assay; assay type: cell-based, human; conditions: Homo sapiens, UO-31, UO-31, Renal cancer, read-out: Cell growth inhibition %
Description: as §1, §2

786-0 = experiment: NCI one-dose assay; assay type: cell-based, human; conditions: Homo sapiens, 786-0, 786-0, Renal cancer, read-out: Cell growth inhibition %
Description: as §1, §2

RXF 393 = experiment: NCI one-dose assay; assay type: cell-based; conditions: Homo sapiens, RXF 393, Renal cancer, read-out: Cell growth inhibition %
NCI 60 cell lines = experiment: NCI one-dose assay, full panel; assay type: cell-based, human; conditions: across all cell lines, 10 µM
Description: as §1, §2

Compound | inhibition at 10 µM (OVCAR-5) [%] | inhibition at 10 µM (NCI-H460) [%] | inhibition at 10 µM (SF-539) [%] | inhibition at 10 µM (UACC-62) [%] | inhibition at 10 µM (NCI-H226) [%] | inhibition at 10 µM (IGROV1) [%] | inhibition at 10 µM (MALME-3M) [%] | inhibition at 10 µM (OVCAR-8) [%] | inhibition at 10 µM (SNB-75) [%] | inhibition at 10 µM (RPMI-8226) [%] | inhibition at 10 µM (PC-3) [%] | inhibition at 10 µM (NCI/ADR-RES) [%] | inhibition at 10 µM (SK-MEL-5) [%] | inhibition at 10 µM (TK-10) [%] | inhibition at 10 µM (U251) [%] | inhibition at 10 µM (MDA-MB-435) [%] | inhibition at 10 µM (NCI-H23) [%] | inhibition at 10 µM (HOP-92) [%] | inhibition at 10 µM (UO-31) [%] | inhibition at 10 µM (786-0) [%] | further results
O=C(CSc1nnc(-c2c[nH]c3ccccc23)n1-c1ccccc1)c1ccc(Br)cc1 [Compound 6i, 2-((5-(1H-Indol-3-yl)-4-phenyl-4H-1,2,4-triazol-3-yl)thio)-1-(4-bromophenyl) Ethenone] | 41.7 | 65.5 | 38 | 64.8 | 60.9 | 35.9 | 29 | 56.5 | 61.2 | 45.6 | 53.8 | 100 | 82.8 | 35.1 | 38.4 | 59.1 | 46 | 71.9 | 74 | 17.6 | inhibition at 10 µM (LOX IMVI): 58.2%; inhibition at 10 µM (A498): 64%
COc1ccc(/C(CSc2nnc(-c3c[nH]c4ccccc34)n2-c2ccccc2)=N/O)cc1 [Compound 7g, (Z)-2-((5-(1H-Indol-3-yl)-4-phenyl-4H-1,2,4-triazol-3-yl)thio)-1-(4-methoxyphenyl) Ethanone Oxime] | 45 | 82.8 | 42.7 | 68.6 | 81.8 | 56.9 | 26.9 | 70.3 | 36.7 | 90.2 | 76.9 | 61.8 | 110 | 57.4 | 60.6 | 105 | 58.4 | 71.8 | 81.8 | 40.3 | inhibition at 10 µM (LOX IMVI): 178%; inhibition at 10 µM (A498): 30.2%
O=C(CSc1nnc(-c2c[nH]c3ccccc23)n1-c1ccccc1)c1ccccc1 [Compound 6f, 2-((5-(1H-indol-3-yl)-4-phenyl-4H-1,2,4-triazol-3-yl)thio)-1-phenylethanone] | 11.4 | 38.2 | 92.4 | 26.6 | 95.5 | 44.9 | 62.6 | 85.3 | -0.34 | 18.7 | 34.2 | 85.2 | 9.3 | 28 | 89.2 | 12.8 | 55.1 | 53 | 44.5 | 70.4 | inhibition at 10 µM (LOX IMVI): 70.8%; inhibition at 10 µM (A498): -6.16%
O/N=C(\CSc1nnc(-c2c[nH]c3ccccc23)n1-c1ccccc1)c1ccccc1 [Compound 7f, (Z)-2-((5-(1H-Indol-3-yl)-4-phenyl-4H-1,2,4-triazol-3-yl)thio)-1-phenylethanone Oxime] | 14.3 | 66 | 22.9 | 59.2 | 56.7 | 41.8 | 23.9 | 43.2 | 23.8 | 68.1 | 75.9 | 44.7 | 84.1 | 34 | 46.2 | 54.9 | 45.8 | 82.7 | 71.6 | 17.9 | inhibition at 10 µM (LOX IMVI): 59%; inhibition at 10 µM (A498): 14.8%
COc1ccc(C(=O)CSc2nnc(-c3c[nH]c4ccccc34)n2-c2ccccc2)cc1 [Compound 6g, 2-((5-(1H-Indol-3-yl)-4-phenyl-4H-1,2,4-triazol-3-yl)thio)-1-(4-methoxyphenyl) Ethenone] | 22.6 | 34.5 | 71.5 | 74.2 | 99.9 | 39.5 | 116 | 84.5 | 85 | 27.3 | 49.7 | 100 | 18.6 | 36.1 | 65.6 | 30.9 | 43.5 | 92.1 | 67.4 | 54.8 | inhibition at 10 µM (LOX IMVI): 56.5%; inhibition at 10 µM (A498): -11.3%
O=C(CSc1nnc(-c2c[nH]c3ccccc23)n1-c1ccccc1)c1ccc(Cl)cc1 [Compound 6j, 2-((5-(1H-indol-3-yl)-4-phenyl-4H-1,2,4-triazol-3-yl)thio)-1-(4-chlorophenyl) Ethenone] | 9.28 | 39.9 | 50.5 | 47.2 | 82.4 | 48.6 | 36 | 75.5 | 45.3 | 16.8 | 39.5 | 94.2 | 21.8 | 16 | 69.9 | 20.8 | 59.2 | 35 | 45.2 | 55.1 | inhibition at 10 µM (LOX IMVI): 84.1%; inhibition at 10 µM (A498): 42.7%
C=CCn1c(SCC(=O)c2ccc(OC)cc2)nnc1-c1c[nH]c2ccccc12 [Compound 6b, 2-((4-Allyl-5-(1H-indol-3-yl)-4H-1,2,4-triazol-3-yl)thio)-1-(4-methoxyphenyl) Ethenone] | -2.88 | -1.3 | 1.18 | 15.6 | 7.5 | 11.1 | 5.32 | 4.99 | -14.8 | 16.8 | 20.3 | -3.74 | 3.34 | -40.5 | 2.31 | -8.45 | 5.52 | 17.3 | 26.9 | -1.31 | inhibition at 10 µM (RXF 393): -5.88%; anticancer activity (in words) (NCI 60 cell lines): minimal anticancer activity
C=CCn1c(SCC(=O)c2ccc(Cl)cc2)nnc1-c1c[nH]c2ccccc12 [Compound 6e, 2-((4-Allyl-5-(1H-indol-3-yl)-4H-1,2,4-triazol-3-yl)thio)-1-(4-chlorophenyl)ethenone] | -5.38 | -3.47 | 0.21 | 14.7 | 10.3 | 7.38 | 9.28 | 9.77 | -0.53 | 7.71 | 22.3 | -2.31 | 3.94 | -24.3 | 3.75 | -5.05 | -7.09 | 21 | 28.5 | 3.55 | inhibition at 10 µM (RXF 393): -9.22%; anticancer activity (in words) (NCI 60 cell lines): minimal anticancer activity

— article PMC11859928, “Design, Synthesis, and Antiproliferative Activity of Novel Indole/1,2,4-Triazole Hybrids as Tubulin Polymerization Inhibitors” (Pharmaceuticals, 2025)
